In patent US9079866B2, “Flap modulators” (JANSSEN PHARMACEUTICA NV, priority 2013, dated 2015):

What follows are compounds tested against human FLAP (Homo sapiens (Human), UniProt P20292) (assay: FLAP binding assay (HTRF format)). Conditions: human FLAP wild type, HTRF format; average of two plates, duplicates.
Description: The ability of the compounds of the present invention to treat a FLAP-mediated disease and/or disorder, or associated symptoms or complications thereof, was determined using the following procedures. Binding assay data represent the average value obtained from two different assay plates, with samples run in duplicate on each plate. Human whole blood assay data represent a single replicate on an assay plate using whole blood from at least one healthy donor.
Data are expressed as a HTRF ratio.

Chain of human FLAP (P20292 whole entry): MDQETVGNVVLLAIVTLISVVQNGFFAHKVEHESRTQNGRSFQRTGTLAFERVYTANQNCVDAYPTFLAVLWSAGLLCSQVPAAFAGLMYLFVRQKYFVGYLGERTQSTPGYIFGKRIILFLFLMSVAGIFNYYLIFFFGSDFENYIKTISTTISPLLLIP

Work on `CS(=O)(=O)c1ccccc1-c1ccc(-c2ncc(N)nc2C#N)c(F)c1` [Example 3, 6-Amino-3-[3-fluoro-2′-(methylsulfonyl)biphenyl-4-yl]pyrazine-2-carbonitrile] yielded a Ki of over 10 µM.

Same assay, conditions: wild type FLAP, HTRF format

Going from `O=C(c1ncccc1-c1ccc(-c2cnc3[nH]ccc3c2)c(F)c1)N1CCOCC1` [Example 781, 5-{2-Fluoro-4-[2-(morpholin-4-ylcarbonyl)pyridin-3-yl]phenyl}-1H-pyrrolo[2,3-b]pyridine] to `CNC1CCN(C(=O)c2ccccc2-c2ccc(-c3cnc(N)nc3)c(F)c2)CC1` [Example 792, [2-[4-(2-Aminopyrimidin-5-yl)-3-fluoro-phenyl]phenyl]-[4-(methylamino)-1-piperidyl]methanone], the Ki rises from 0.73 µM to over 10 µM.

`Nc1cnc(-c2ccc(-c3ccccc3C(=O)N3CCNC(=O)C3)cc2F)cn1` [Example 519, 4-{[4′-(5-Aminopyrazin-2-yl)-3′-fluorobiphenyl-2-yl]carbonyl}piperazin-2-one] and `CC(=O)N1CCN(C(=O)c2ccccc2-c2ccc(-c3cnc(N)cn3)c(F)c2)CC1` [Example 507, 5-{2′-[(4-Acetylpiperazin-1-yl)carbonyl]-3-fluorobiphenyl-4-yl}pyrazin-2-amine] cannot be ordered by Ki: over 10 µM for the first, over 10 µM for the second.

Compared with `CC(C)c1ccccc1-c1ccc(-c2cnc(N)cn2)c(F)c1` [Example 482, 5-[3-Fluoro-2′-(1-methylethyl)biphenyl-4-yl]pyrazin-2-amine], `N#Cc1ccccc1-c1ccc(-c2cnc(N)cn2)c(F)c1` [Example 701, 4′-(5-Aminopyrazin-2-yl)-3′-fluorobiphenyl-2-carbonitrile] is 12-fold higher in Ki: 0.12 µM for the first, about 1.41 µM for the second.

`CC(C)(C)NS(=O)(=O)c1ccccc1-c1ccc(-c2cn3cc(C(F)(F)F)ccc3n2)c(F)c1` [Example 586, N-tert-Butyl-3′-fluoro-4′-[6-(trifluoromethyl)imidazo[1,2-a]pyridin-2-yl]biphenyl-2-sulfonamide] and `CC(C)(C)NS(=O)(=O)c1ccccc1-c1ccc(-c2ccc3[nH]c(=O)[nH]c(=O)c3c2)c(F)c1` [Example 596, N-tert-Butyl-4′-(2,4-dioxo-1,2,3,4-tetrahydroquinazolin-6-yl)-3′-fluorobiphenyl-2-sulfonamide] cannot be ordered by Ki: over 10 µM for the first, over 10 µM for the second.

Compared with `C[C@@H]1COCCN1C(=O)c1ccccc1-c1ccc(-c2cnc(N)nc2)c(F)c1` [Example 779, 5-(3-Fluoro-2′-{[(3R)-3-methylmorpholin-4-yl]carbonyl}biphenyl-4-yl)pyrimidin-2-amine], `Nc1ncc(-c2ccc(-c3ccccc3C(=O)NC3CCOCC3)cc2F)cn1` [Example 797, 2-[4-(2-Aminopyrimidin-5-yl)-3-fluoro-phenyl]-N-tetrahydropyran-4-yl-benzamide] is higher in Ki: about 2.49 µM for the first, over 10 µM for the second. The first binds more tightly here.

Going from `CS(=O)(=O)c1ccccc1-c1ccc(-c2cnc(N)cn2)cc1` [Example 589, 5-[2′-(Methylsulfonyl)biphenyl-4-yl]pyrazin-2-amine] to `Nc1cnc(-c2ccc(-c3ccccc3S(=O)(=O)N3CCOCC3)cc2)cn1` [Example 573, 5-[2′-(Morpholin-4-ylsulfonyl)biphenyl-4-yl]pyrazin-2-amine], the Ki falls from over 10 µM to 0.114 µM.

Going from `CC(C)(C)NS(=O)(=O)c1ccccc1-c1ccc(-c2cnc(NS(C)(=O)=O)cn2)c(F)c1` [Example 748, N-(tert-Butyl)-3′-fluoro-4′-(5-(methylsulfonamido)pyrazin-2-yl)-[1,1′-biphenyl]-2-sulfonamide] to `Nc1cnc(-c2ccc(-c3ccccc3OCCO)cc2F)cn1` [Example 628, 2-{[4′-(5-Aminopyrazin-2-yl)-3′-fluorobiphenyl-2-yl]oxy}ethanol], the Ki falls from over 10 µM to 0.336 µM.

`Nc1cnc(-c2ccc(-c3cc(C(F)(F)F)ccc3-c3cnc(N)nc3)cc2F)cn1` [Example 845, 5-[4′-(5-Aminopyrazin-2-yl)-3′-fluoro-5-(trifluoromethyl)biphenyl-2-yl]pyrimidin-2-amine] and `Nc1ncc(-c2ccc(-c3cccnc3OCCO)cc2F)cn1` [Example 649, 2-({3-[4-(2-Aminopyrimidin-5-yl)-3-fluorophenyl]pyridin-2-yl}oxy)ethanol] cannot be ordered by Ki: over 10 µM for the first, over 10 µM for the second.
